According to patent publication US20220257774A1, “AROMATIC AMINE AR AHD BET TARGETING PROTEIN DEGRADATION CHIMERA COMPOUND AND USE” (HINOVA PHARMACEUTICALS INC., priority 2019, published 2022):
Read-outs that look alike come from different tables or passages of the source.

What was measured:
22RV1 cells = assay: Inhibition of the proliferation of drug-resistant prostate cancer cell 22RV1 (CCK-8); type: cell-based; details: 22RV1 cells (enzalutamide-resistant), same method
Method: (1) Experimental materials and instruments: LNCaP/AR cell line and 22RV1 cell line (provided by Sichuan Kangcheng Biotechnology Co., Ltd.) Fetal bovine serum FBS (Gibco, Cat. No. 10099-141) 0.01M PBS (Biosharp, Cat. No. 162262) RIPM1640 medium (Hyclone, Cat. No. 308090.01) Penicillin-Streptomycin (Hyclone, Cat. No. SV30010) Cell counting kit-8 (Signalway Antibody, Cat. No. CP002) DMSO (Sigma, Cat. No. D5879) Centrifuge Tube, 15 ml (Excell Bio, Cat. No. CS015-0001) Cell Culture Dish, (Excell Bio, Cat. No. CS016-0128) 96-well cell culture plate (Corning, Cat. No. 3599) Microplate reader (Thermo Multiskan MK3 type)
a. Preparation of Buffer Cell culture medium: RIPM1640 medium, 10% FBS, 1% Pen Strep: PBS buffer: PBS powder was dissolved in 2 L of ultrapure water and sterilized. b. Experimental Procedures 1) LNCaP/AR cells were subcultured in cell culture media, and then the cells in good growth condition were seeded in a 96-well plate at 80 μL/well (1000 cells/well), and cultured overnight in a 37° C., 5% CO2 cell incubator. 2) The drug was prepared into a 10 mM stock solution with dimethyl sulfoxide (DMSO). Prior to use, the stock solution was diluted in a ratio of […] with DMSO, and then diluted at a 3-fold gradient to obtain 9 serial concentrations. Then, each concentration of compound was further diluted in a ratio of 1:200 with the culture medium (to ensure that the DMSO concentration in the culture system was 0.1%), and two wells were set for each concentration. 20 μL of the diluted compound solution was added to the well of the cell culture (with a final concentration of 10 μM, 3.3 μM, 1.1 μM . . . ), and then the plate was gently tapped to thoroughly mix. In addition, the experiment included 3 negative control wells only containing cells and 3 blank control wells only containing culture medium (6 wells were each added with DMSO diluted in a ratio of 1:200 with 20 μL of culture medium). c. Result Detection: 1) After culturing for 6 days, 10 μL of CCK-8 was added to each well, and the plate was further incubated for 1 h in a 37° C., 5% CO2 cell incubator. 2) The absorbance (OD value) was measured at 450 nm with a multifunctional microplate reader. 3) The data was analyzed by the Dose-response-inhibition equation in the software GraphPad Prism5, and the IC50 value was obtained. 2. Biological assay of the inhibition on the proliferation of other drug-resistant prostate cancer cells
The same test method was used to determine the inhibitory activity of the compound according to the present invention against drug-resistant prostate cancer cell 22RV1.

LNCaP/AR cells = assay: Inhibition of the proliferation of LNCap/AR cells (CCK-8); type: cell-based; details: read-out: LNCap/AR IC50
How it was run: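 LNCaP/AR cells (1000/well, RPMI1640 + 10% FBS) were treated for 6 days at 37 °C with 9-point 3-fold dilutions from 10 μM final, 0.1% DMSO, in duplicate. Viability was read by CCK-8 absorbance at 450 nm after 1 h, and IC50 came from a dose-response-inhibition fit.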

[1] = LNCaP/AR cells, 6 days culture, CCK-8
[2] = 144 h, LNCaP/AR cells, 6 days culture, CCK-8

Row | IC50 (22RV1 cells) | IC50 (LNCaP/AR cells; [1]) | IC50 (22RV1 cells; Homo sapiens) | IC50 (LNCaP/AR cells; [2]) | SMILES | IC50 (LNCaP/AR cells; LNCaP/AR, 144 h)
1 | > 2000 nM | < 100 nM | – | – | Cc1ccc(-c2c(C)noc2C)cc1N(CC1CCC(Nc2cc3c(cc2F)C(=O)N(C2CCC(=O)NC2=O)C3)CC1)c1ccc(C2(C#N)CC2)cc1 (centres unmarked) [Compound 163, 1-(4-((5-(3,5-Dimethylisoxazol-4-yl)-2-methylphenyl)(((1s,4s)-4-((2-(2,6-dioxopiperidin-3)-6-fluoro-1-isoindolinone-5-yl)amino)cyclohexyl)methyl)amino)phenyl)phenylcyclopropanecarbonitrile] | –
2 | – | – | > 2000 nM | > 2000 nM | Cc1ccc(-c2c(C)noc2C)cc1N(c1ccc(C2(C#N)CC2)cc1)C1CN(CC2CCN(c3ccc4c(c3)C(=O)N(C3CCC(=O)NC3=O)C4=O)CC2)C1 (centres unmarked) [Compound 34, 1-(4-((5-(3,5-Dimethylisoxazol-4-yl)-2-methylphenyl) (1-((1-(2-(2,6-dioxopiperidin-3-yl)-1,3-dioxoisoindolin-5-yl)piperidin-4-yl)methyl)azetidin-3-yl)amino)phenyl)cyclopropane-1-nitrile] | –
3 | – | – | > 2000 nM | > 2000 nM | Cc1ccc(-c2c(C)noc2C)cc1N(CCOC1(C)CN(c2ccc3c(c2)C(=O)N(C2CCC(=O)NC2=O)C3=O)C1)c1ccc(C2(C#N)CC2)cc1 (centres unmarked) [Compound 110, 1-(4-((5-(3,5-Dimethylisoxazol-4-yl)-2-methylphenyl)(2-((1-(2-(2,6-dioxopiperidin-3-yl)-1,3-dioxoisoindolin-5-yl)-3-methylazetidin-3-yl)oxy)ethyl)amino)phenyl)cyclopropanecarbonitrile] | –
4 | – | – | 501 to 2000 nM | 101 to 500 nM | Cc1ccc(-c2c(C)noc2C)cc1N(CC1CN(c2cc3c(cc2F)C(=O)N(C2CCC(=O)NC2=O)C3)C1)c1ccc(C2(C#N)CC2)cc1 (centres unmarked) [Compound 156] | –
5 | – | – | > 2000 nM | > 2000 nM | Cc1ccc(-c2c(C)noc2C)cc1N(C[C@H]1C[C@@H]1CNc1cc2c(cc1F)C(=O)N(C1CCC(=O)NC1=O)C2)c1ccc(C2(C#N)CC2)cc1 (some centres unmarked) [Compound 185] | –
6 | – | – | > 2000 nM | > 2000 nM | Cc1ccc(-c2c(C)noc2C)cc1N(CCOC1(C)CN(c2cc3c(cc2F)CN(C2CCC(=O)NC2=O)C3=O)C1)c1ccc(C2(C#N)CC2)cc1 (centres unmarked) [Compound 112, 1-(4-((5-(3,5-Dimethylisoxazol-4-yl)-2-methylphenyl)(2-((1-(2-(2,6-dioxopiperidin-3-yl)-6-fluoro-3-oxoisoindolin-5-yl)-3-methylazetidin-3-yl)oxy)ethyl)amino)phenyl)cyclopropanecarbonitrile] | –
7 | – | – | 101 to 500 nM | > 2000 nM | Cc1ccc(-c2c(C)noc2C)cc1N(C[C@H]1C[C@@H]1CNc1ccc2c(c1)C(=O)N(C1CCC(=O)NC1=O)C2=O)c1ccc(C2(C#N)CC2)cc1 (some centres unmarked) [Compound 182] | –
8 | – | – | > 2000 nM | > 2000 nM | Cc1ccc(-c2c(C)noc2C)cc1N(c1ccc(C2(C#N)CC2)cc1)C1CC2(C1)CN(c1cc3c(cc1F)C(=O)N(C1CCC(=O)NC1=O)C3=O)C2 (centres unmarked) [Compound 170] | –

The next lines start with the compound.

Row | SMILES | IC50 (22RV1 cells) | IC50 (LNCaP/AR cells; [1]) | IC50 (22RV1 cells; Homo sapiens) | IC50 (LNCaP/AR cells; [2]) | IC50 (LNCaP/AR cells; LNCaP/AR, 144 h)
9 | Cc1ccc(-c2c(C)noc2C)cc1N(CC1CCC(COc2ccc3c(c2)CN(C2CCC(=O)NC2=O)C3=O)CC1)c1ccc(C#N)c(Cl)c1 (centres unmarked) [Compound 105, 2-Chloro-4-((5-(3,5-dimethylitsoxazol-4-yl)-2-methylphenyl)((1r,4r)-4-((2-((2,6-dioxopiperidin-3-yl)-1-oxoisoindolin-5-yl)oxy)methyl)cyclohexyl)methyl)amino)benzonitrile] | 101 to 500 nM | 501 to 2000 nM | – | – | –
10 | Cc1ccc(-c2c(C)noc2C)cc1N(CCCCOc1ccc2c(c1)C(=O)N(C1CCC(=O)NC1=O)C2=O)c1ccc(C2(C#N)CC2)cc1 (centres unmarked) [Compound 108, 1-(4-((5-(3,5-Dimethylisoxazol-4-yl)-2-methylphenyl)(4-((2-(2,6-dioxopiperidin-3-yl)-1,3-dioxoisoindolin-5-yl)oxy)butyl)amino)phenyl)cyclopropanecarbonitrile] | – | – | 501 to 2000 nM | > 2000 nM | –
11 | Cc1ccc(-c2c(C)noc2C)cc1N(CC1CCN(C2CCN(c3ccc4c(c3)C(=O)N(C3CCC(=O)NC3=O)C4=O)CC2)CC1)c1ccc(C2(C#N)CC2)cc1 (centres unmarked) [Compound 77, 1-(4-((5-(3,5-dimethylisoxazol-4-yl)-2-methylphenyl)((1′-(2-(2,6-dioxopiperidin-3-yl)-1,3-dioxoisoindolin-5-yl)-[1,4′-bipiperidine]-4-yl)methyl)amino)phenyl)cyclopropane-1-nitrile] | – | – | > 2000 nM | – | > 2000 nM
12 | Cc1ccc(-c2c(C)noc2C)cc1N(CC1CN([C@H]2C[C@@H](Nc3cc4c(cc3F)C(=O)N(C3CCC(=O)NC3=O)C4=O)C2)C1)c1ccc(C2(C#N)CC2)cc1 (some centres unmarked) [Compound 71, 1-(4-((5-(3,5-dimethylisoxazol-4-yl)-2-methylphenyl)((1-((1s,3s)-3-((2-(2,6-dioxopiperidin-3-yl)-6-fluoro-1,3-dioxoisoindolin-5-yl)amino)cyclobutyl)azetidin-3-yl)methyl)amino)phenyl)cyclopropane-1-nitrile] | – | – | > 2000 nM | > 2000 nM | –
13 | Cc1ccc(-c2c(C)noc2C)cc1N(CCCNc1cc2c(cc1F)C(=O)N(C1CCC(=O)NC1=O)C2=O)c1ccc(C2(C#N)CC2)cc1 (centres unmarked) [Compound 171, 1-(4-((5-(3,5-Dimethylisoxazol-4-yl)-2-methylphenyl)(3-((2-(2,6-dioxopiperidin-3-yl)-6-fluoro-1,3-dioxoidindolin-5-yl)amino)propyl)amino)phenyl)cyclopropane-1-nitrile] | > 2000 nM | > 2000 nM | – | – | –
14 | Cc1ccc(-c2c(C)noc2C)cc1N(CCC(C)CCNc1cc2c(cc1F)C(=O)N(C1CCC(=O)NC1=O)C2=O)c1ccc(C2(C#N)CC2)cc1 (centres unmarked) [Compound 189, 1-(4-((5-(3,5-dimethylisoxazol-4-yl)-2-methylphenyl)(5-((2-(2,6-dioxopiperidin-3-yl)-6-fluoro-1,3-dioxoisoindolin-5-yl)amino)-3-methylpentanyl)amino)phenyl)cyclopropane-1-carbonitrile] | – | – | 501 to 2000 nM | > 2000 nM | –
15 | Cc1ccc(-c2c(C)noc2C)cc1N(CC1CCN(C2CN(c3cc4c(cc3F)C(=O)N(C3CCC(=O)NC3=O)C4)C2)CC1)c1ccc(C2(C#N)CC2)cc1 (centres unmarked) [Compound 160] | – | – | < 100 nM | > 2000 nM | –
16 | Cc1ccc(-c2c(C)noc2C)cc1N(CC1CC2(C1)CN(c1cc3c(cc1F)C(=O)N(C1CCC(=O)NC1=O)C3)C2)c1ccc(C2(C#N)CC2)cc1 (centres unmarked) [Compound 125, 1-(4-((5-(3,5-dimethylisoxazol-4-yl)-2-methylphenyl)((2-(2-(2-,2,6-dioxopiperidin-3-yl)-6-fluoro-1-oxoisoindolin-5-yl)-2-azaspiro[3.3]heptan-6-yl)methyl)amino)phenyl)cyclopropane-1-carbonitrile] | – | – | 501 to 2000 nM | 501 to 2000 nM | –
17 | Cc1ccc(-c2c(C)noc2C)cc1N(C[C@H]1CC[C@H](CNc2cc3c(cc2F)CN(C2CCC(=O)NC2=O)C3=O)CC1)c1ccc(C#N)c(Cl)c1 (some centres unmarked) [Compound 136] | – | – | 101 to 500 nM | – | 501 to 2000 nM
18 | Cc1ccc(-c2c(C)noc2C)cc1N(CC1CC2(C1)CN(c1cc3c(cc1F)CN(C1CCC(=O)NC1=O)C3=O)C2)c1ccc(C2(C#N)CC2)cc1 (centres unmarked) [Compound 126, 1-(4-((5-(3,5-dimethylisoxazol-4-yl)-2-methylphenyl)((2-(2-(2-,2,6-dioxopiperidin-3-yl)-6-fluoro-3-oxoisoindolin-5-yl)-2-azaspiro[3.3]heptan-6-yl)methyl)amino)phenyl)cyclopropane-1-carbonitrile] | > 2000 nM | 501 to 2000 nM | – | – | –
19 | Cc1ccc(-c2c(C)noc2C)cc1N(CC1CCC(Nc2cc3c(cc2F)CN(C2CCC(=O)NC2=O)C3=O)CC1)c1ccc(C2(C#N)CC2)cc1 (centres unmarked) [Compound 162, 1-(4-((5-(3,5-Dimethylisoxazol-4-yl)-2-methylphenyl)(((1s,4s)-4-((2-(2,6-dioxopiperidin-3)-6-fluoro-3-isoindolinone-5-yl)amino)cyclohexyl)methyl)amino)phenyl)phenylcyclopropanecarbonitrile] | > 2000 nM | 101 to 500 nM | – | – | –
